Fold change (FC) and inhibition data for 3 molecules are collected here from ChEMBL document CHEMBL5653631, “A Potent and Selective ULK1 Inhibitor Suppresses Autophagy and Sensitizes Cancer Cells to Nutrient Stress” (iScience, 2018).

Test [1] concerns the target Transcription initiation factor TFIID subunit 1-like (Homo sapiens) (UniProt Q8IZX4). The experiment in a line: Inhibition of human recombinant TAF1L at 40 nM related to control ULK1.
Test [2] addresses RAF proto-oncogene serine/threonine-protein kinase (Homo sapiens) (UniProt P04049). The experiment in a line: Inhibition of human recombinant RAF1 at 40 nM related to control ULK1.
The target of test [3] is Focal adhesion kinase 1 (Homo sapiens) (UniProt Q05397). Description: Inhibition of human recombinant FAK at 40 nM related to control ULK1.
Test [4] has as its target T1, Serine/threonine-protein kinase 3 (Homo sapiens) (UniProt Q13188).
T1 sequence (whole entry): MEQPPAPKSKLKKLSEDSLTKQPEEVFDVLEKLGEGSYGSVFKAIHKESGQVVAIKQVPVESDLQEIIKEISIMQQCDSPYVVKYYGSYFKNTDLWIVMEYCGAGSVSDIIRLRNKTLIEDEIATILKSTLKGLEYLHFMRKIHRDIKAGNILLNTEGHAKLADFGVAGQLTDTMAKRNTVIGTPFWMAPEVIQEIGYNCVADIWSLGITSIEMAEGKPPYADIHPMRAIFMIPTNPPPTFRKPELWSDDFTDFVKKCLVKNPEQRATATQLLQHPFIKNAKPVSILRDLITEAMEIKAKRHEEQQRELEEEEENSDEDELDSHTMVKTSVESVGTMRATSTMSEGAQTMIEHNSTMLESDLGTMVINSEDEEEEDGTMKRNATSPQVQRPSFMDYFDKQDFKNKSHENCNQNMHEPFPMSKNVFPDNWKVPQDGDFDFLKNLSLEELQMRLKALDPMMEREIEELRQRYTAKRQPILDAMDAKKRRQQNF
The experiment in a line: Inhibition of human recombinant MST2 at 40 nM related to control ULK1.

The target of test [5] is Insulin receptor (Homo sapiens) (UniProt P06213). The experiment in a line: Inhibition of human recombinant INSR at 40 nM in presence of ATP by radiometric assay relative to control.
Test [6] has as its target T2, Serine/threonine-protein kinase Chk1 (Homo sapiens) (UniProt O14757).
T2 sequence (whole entry): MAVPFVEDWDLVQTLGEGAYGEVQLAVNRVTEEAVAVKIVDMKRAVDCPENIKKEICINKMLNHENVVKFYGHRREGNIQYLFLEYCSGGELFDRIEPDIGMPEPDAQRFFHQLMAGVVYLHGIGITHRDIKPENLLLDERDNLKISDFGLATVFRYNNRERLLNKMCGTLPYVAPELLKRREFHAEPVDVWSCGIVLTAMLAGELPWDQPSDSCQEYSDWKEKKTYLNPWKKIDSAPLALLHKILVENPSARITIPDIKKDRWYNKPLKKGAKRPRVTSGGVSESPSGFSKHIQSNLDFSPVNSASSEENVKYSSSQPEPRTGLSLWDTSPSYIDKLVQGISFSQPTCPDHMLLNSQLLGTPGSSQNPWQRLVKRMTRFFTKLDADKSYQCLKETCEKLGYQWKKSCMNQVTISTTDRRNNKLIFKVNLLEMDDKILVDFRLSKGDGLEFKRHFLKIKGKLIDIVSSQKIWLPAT
Description: Inhibition of human recombinant CHK1 at 500 nM related to control ULK1.

In test [7] the target is Tyrosine-protein kinase Tec (Homo sapiens) (UniProt P42680). The experiment in a line: Inhibition of human recombinant TEC at 500 nM in presence of ATP by radiometric assay relative to control.
For test [8], the target named is Tyrosine-protein kinase JAK1 (Homo sapiens) (UniProt P23458). The experiment in a line: Inhibition of human recombinant JAK1 at 500 nM related to control ULK1.
For test [9], the target named is Ribosomal protein S6 kinase alpha-1 (Homo sapiens) (UniProt Q15418). The experiment in a line: Inhibition of human recombinant RSK1 at 500 nM related to control ULK1.
The target in test [10] is Interleukin-1 receptor-associated kinase 1 (Homo sapiens) (UniProt P51617). The experiment in a line: Inhibition of human recombinant IRAK1 at 500 nM related to control ULK1.
Test [11] concerns the target cAMP-dependent protein kinase catalytic subunit alpha (Homo sapiens) (UniProt P17612). The experiment in a line: Inhibition of human recombinant PKACalpha at 15 nM related to control ULK1.
In test [12] the target is T3, Mitogen-activated protein kinase kinase kinase 7 (Homo sapiens) (UniProt O43318).
T3 sequence (whole entry): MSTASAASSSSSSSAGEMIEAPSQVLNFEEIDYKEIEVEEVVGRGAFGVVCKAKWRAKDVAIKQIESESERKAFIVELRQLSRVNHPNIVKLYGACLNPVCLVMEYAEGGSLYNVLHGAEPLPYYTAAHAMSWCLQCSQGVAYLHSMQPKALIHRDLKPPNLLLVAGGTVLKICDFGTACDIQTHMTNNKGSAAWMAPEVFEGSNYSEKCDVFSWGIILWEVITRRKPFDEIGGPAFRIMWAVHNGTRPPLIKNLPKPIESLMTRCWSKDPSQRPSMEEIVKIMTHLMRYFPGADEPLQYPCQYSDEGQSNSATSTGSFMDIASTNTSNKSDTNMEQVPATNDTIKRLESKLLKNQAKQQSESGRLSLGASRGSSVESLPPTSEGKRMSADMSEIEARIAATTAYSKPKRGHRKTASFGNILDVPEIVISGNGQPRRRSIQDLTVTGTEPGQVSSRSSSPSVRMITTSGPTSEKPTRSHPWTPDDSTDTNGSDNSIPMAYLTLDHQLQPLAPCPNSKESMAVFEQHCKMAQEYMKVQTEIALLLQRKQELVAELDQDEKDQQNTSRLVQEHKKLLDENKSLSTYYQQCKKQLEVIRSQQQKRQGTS
Description: Inhibition of human recombinant TAK1 at 15 nM in presence of ATP by radiometric assay relative to control.

The target of test [13] is Mitogen-activated protein kinase kinase kinase 20 (Homo sapiens) (UniProt Q9NYL2). The experiment in a line: Inhibition of human recombinant ZAK at 15 nM related to control ULK1.

SMILES strings stand for the structures.

Sequence of Mitogen-activated protein kinase kinase kinase 20 (Homo sapiens) (Q9NYL2 2-800 limits assumed): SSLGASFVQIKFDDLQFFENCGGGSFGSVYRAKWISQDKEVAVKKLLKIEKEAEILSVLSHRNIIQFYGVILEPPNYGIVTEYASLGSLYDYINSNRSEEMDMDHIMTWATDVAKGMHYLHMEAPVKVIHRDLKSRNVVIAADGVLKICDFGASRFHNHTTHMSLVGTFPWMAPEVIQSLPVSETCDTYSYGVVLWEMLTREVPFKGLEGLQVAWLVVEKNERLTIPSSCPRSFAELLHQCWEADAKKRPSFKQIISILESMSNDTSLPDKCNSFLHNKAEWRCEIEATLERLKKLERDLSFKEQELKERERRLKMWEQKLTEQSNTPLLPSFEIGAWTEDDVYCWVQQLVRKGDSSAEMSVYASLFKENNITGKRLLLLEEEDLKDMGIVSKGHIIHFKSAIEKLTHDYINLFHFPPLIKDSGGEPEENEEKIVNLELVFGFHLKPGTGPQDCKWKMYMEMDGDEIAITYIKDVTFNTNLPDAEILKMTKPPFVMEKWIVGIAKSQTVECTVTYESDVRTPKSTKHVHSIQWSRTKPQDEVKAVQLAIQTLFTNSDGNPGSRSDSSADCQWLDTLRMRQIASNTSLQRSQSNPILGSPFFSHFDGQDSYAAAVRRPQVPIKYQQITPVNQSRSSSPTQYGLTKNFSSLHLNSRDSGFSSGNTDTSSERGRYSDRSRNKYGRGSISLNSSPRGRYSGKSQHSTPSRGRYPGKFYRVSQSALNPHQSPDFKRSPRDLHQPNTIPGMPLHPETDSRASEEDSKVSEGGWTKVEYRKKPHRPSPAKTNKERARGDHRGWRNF
Sequence of Tyrosine-protein kinase JAK1 (Homo sapiens) (P23458 whole entry): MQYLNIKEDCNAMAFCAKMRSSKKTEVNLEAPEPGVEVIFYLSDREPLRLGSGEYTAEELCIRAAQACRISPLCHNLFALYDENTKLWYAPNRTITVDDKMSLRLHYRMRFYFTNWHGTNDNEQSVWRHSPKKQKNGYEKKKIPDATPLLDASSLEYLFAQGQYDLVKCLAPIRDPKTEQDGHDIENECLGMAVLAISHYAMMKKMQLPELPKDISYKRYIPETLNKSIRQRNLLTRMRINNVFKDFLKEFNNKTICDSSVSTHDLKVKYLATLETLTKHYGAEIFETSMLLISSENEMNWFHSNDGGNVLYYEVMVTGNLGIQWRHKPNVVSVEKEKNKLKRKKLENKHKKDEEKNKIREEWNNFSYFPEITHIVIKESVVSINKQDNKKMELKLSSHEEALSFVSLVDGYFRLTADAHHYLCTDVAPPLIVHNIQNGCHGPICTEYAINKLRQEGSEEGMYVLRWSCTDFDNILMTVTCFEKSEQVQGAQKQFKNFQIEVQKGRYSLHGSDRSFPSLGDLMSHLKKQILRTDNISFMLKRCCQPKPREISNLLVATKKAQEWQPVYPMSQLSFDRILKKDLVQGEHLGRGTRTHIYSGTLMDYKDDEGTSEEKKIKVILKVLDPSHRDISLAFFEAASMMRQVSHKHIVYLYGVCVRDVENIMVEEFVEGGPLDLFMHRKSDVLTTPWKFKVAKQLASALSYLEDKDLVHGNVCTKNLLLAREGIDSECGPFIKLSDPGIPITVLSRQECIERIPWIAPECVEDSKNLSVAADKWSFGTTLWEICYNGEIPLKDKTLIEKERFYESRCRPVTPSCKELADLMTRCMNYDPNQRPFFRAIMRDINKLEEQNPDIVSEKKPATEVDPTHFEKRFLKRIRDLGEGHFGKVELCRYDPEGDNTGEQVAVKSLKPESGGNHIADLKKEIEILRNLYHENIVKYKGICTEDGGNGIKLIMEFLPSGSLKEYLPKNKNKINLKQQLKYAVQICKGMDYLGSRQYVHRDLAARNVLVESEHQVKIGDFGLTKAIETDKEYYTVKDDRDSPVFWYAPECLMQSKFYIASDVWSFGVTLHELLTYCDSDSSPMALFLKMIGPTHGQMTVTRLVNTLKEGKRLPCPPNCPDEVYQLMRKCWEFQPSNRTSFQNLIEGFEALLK
Sequence of Interleukin-1 receptor-associated kinase 1 (Homo sapiens) (P51617 whole entry, looked up): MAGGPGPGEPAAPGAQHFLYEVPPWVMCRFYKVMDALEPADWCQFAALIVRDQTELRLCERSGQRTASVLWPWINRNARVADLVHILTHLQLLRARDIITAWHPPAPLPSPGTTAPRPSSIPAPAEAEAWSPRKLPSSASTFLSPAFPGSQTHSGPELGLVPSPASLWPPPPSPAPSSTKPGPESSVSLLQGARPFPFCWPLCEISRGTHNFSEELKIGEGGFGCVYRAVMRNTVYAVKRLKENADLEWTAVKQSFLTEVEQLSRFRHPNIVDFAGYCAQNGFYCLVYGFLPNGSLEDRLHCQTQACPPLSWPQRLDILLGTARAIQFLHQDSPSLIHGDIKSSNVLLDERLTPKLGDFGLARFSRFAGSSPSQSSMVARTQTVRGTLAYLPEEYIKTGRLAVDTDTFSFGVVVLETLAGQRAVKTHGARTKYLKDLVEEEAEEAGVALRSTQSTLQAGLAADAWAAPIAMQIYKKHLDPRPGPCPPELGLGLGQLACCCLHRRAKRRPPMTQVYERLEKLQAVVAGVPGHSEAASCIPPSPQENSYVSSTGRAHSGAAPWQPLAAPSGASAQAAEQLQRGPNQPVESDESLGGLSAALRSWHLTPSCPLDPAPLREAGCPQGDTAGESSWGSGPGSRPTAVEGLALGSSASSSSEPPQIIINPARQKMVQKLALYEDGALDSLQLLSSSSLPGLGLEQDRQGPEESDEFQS
Sequence of Transcription initiation factor TFIID subunit 1-like (Homo sapiens) (Q8IZX4 whole entry): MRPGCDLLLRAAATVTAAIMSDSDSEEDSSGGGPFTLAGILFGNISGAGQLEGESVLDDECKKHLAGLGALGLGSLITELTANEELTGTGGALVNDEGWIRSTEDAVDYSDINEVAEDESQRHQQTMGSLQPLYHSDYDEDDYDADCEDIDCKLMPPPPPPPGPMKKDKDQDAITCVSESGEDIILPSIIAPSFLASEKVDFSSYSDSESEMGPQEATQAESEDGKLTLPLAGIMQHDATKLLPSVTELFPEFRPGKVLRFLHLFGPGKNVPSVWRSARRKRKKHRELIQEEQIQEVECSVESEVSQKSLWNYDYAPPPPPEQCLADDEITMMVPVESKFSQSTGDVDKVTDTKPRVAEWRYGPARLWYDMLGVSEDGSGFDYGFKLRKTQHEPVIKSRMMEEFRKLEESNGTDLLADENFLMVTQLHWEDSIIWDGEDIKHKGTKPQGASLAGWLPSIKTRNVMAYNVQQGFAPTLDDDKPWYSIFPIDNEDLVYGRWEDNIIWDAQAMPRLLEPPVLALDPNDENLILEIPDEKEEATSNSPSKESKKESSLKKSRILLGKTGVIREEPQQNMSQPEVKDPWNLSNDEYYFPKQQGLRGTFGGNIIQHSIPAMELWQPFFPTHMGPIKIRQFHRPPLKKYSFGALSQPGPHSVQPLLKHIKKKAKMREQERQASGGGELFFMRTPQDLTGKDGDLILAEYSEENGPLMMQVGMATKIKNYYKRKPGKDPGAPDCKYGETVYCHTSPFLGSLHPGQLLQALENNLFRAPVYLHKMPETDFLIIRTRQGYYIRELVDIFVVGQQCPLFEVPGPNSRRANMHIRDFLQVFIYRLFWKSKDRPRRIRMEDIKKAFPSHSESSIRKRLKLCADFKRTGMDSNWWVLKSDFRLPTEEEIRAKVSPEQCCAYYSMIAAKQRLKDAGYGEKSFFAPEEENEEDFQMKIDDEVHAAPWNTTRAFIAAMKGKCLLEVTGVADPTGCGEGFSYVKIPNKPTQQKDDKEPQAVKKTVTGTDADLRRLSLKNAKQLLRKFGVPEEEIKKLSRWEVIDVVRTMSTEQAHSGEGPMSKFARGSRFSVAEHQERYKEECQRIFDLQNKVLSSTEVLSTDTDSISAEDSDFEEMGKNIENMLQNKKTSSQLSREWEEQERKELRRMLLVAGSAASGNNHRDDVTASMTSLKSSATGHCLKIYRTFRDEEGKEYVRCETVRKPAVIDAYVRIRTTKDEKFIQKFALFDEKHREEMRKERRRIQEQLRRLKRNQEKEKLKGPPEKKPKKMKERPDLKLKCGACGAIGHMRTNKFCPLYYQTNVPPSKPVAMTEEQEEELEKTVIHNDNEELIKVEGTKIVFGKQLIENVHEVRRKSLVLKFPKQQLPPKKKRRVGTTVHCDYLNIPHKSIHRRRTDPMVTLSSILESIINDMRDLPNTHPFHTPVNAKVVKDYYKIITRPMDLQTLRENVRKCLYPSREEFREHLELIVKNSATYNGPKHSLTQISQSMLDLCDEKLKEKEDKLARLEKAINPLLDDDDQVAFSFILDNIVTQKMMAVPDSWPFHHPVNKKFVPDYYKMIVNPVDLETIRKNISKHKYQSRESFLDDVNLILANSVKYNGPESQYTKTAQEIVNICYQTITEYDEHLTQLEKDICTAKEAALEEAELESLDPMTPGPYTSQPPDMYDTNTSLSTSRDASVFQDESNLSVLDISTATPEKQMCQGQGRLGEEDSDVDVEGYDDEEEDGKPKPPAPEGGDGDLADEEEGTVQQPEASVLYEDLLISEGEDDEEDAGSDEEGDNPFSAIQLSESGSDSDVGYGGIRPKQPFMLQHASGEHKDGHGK
Sequence of Tyrosine-protein kinase Tec (Homo sapiens) (P42680 whole entry, looked up): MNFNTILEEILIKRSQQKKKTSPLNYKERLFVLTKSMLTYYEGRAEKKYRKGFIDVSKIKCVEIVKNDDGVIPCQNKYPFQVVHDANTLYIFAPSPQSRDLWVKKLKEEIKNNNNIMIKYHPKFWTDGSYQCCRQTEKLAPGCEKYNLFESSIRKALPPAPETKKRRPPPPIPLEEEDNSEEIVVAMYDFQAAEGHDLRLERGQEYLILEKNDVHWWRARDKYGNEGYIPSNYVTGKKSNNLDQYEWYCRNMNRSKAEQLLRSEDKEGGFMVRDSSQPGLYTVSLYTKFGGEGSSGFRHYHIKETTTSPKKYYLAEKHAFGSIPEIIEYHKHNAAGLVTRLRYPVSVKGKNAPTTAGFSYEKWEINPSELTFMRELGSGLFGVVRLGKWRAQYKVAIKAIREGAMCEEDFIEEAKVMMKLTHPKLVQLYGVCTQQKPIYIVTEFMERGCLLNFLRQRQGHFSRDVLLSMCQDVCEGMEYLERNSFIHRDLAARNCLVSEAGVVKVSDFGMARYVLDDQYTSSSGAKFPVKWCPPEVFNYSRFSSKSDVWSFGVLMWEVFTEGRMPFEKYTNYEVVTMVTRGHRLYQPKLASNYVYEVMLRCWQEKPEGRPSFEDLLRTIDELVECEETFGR

In the case of `O=C(N[C@@H](C1CC1)C(F)(F)F)c1cc(-c2cnn3cc(-c4ccc(F)cc4)cnc23)cs1`, the fold change (FC) in test [1] is 0.64; in test [2], 0.01; in test [3] it was 0; in test [4] it was 0. Further, the inhibition in test [5] was 0%.
As for `CNC(=O)c1ccccc1Oc1nc(Nc2cc(OC)c(OC)c(OC)c2)ncc1Br`, the fold change (FC) in test [6] amounted to 0.05; in test [8], 0.53; in [9], 0.26; in test [10] it was 0.2. The inhibition in test [7] came out at 2%.
In the case of `CC(C)[C@H](NC(=O)c1cc(-c2cnn3cc(-c4ccc(OCCN5CCCCC5)cc4)cnc23)cs1)C(F)(F)F`, the figures for the fold change (FC) in test [11] and in test [13] were 0 and 0.3, respectively. Moreover, the inhibition in [12] worked out at 1%.

One may read the inhibition as the relative decrease from the control value, in per cent.
